{
  "source": "patent US9308174B2",
  "about": "“Lyophilized formulations of bendamustine hydrochloride” (CHEMI S.P.A., priority 2013, dated 2016)",
  "origin": "cited, not measured here",
  "key": {"[1]": {"conditions": "water, 5° C."}},
  "note": "Where two headings read alike, the source gives them in different places.",
  "data": [
    {"smiles": "Cl.Cn1c(CCCC(=O)O)nc2cc(N(CCCl)CCCl)ccc21", "note": "[bendamustine hydrochloride, Bendamustine hydrochloride]", "values": [
      {"measurement": "HP1 percentage", "setting": "[1]; after 3 hours", "result": 0.86, "unit": "%"},
      {"measurement": "HP1 percentage", "setting": "[1]; after 6 hours", "result": 3.81, "unit": "%"},
      {"measurement": "appearance of the solution", "setting": "[1]; after 6 hours", "result": "formation of a precipitate"},
      {"measurement": "HP1 percentage", "setting": "[1]; time=0", "result": 0.6, "unit": "%"},
      {"measurement": "time to 10% degradation of the active ingredient", "setting": "aqueous solution 0.25 mg/ml, room temperature", "result": 4.2, "unit": "h"},
      {"measurement": "time to lose 10% of its title (t90)", "setting": "solution at 4° C.", "result": 119.5, "unit": "h"},
      {"measurement": "time to lose 10% of its title (t90)", "setting": "solution at 23° C.", "result": 9.2, "unit": "h"}
    ]}
  ]
}
